Experiments:
RPMI-8226 = assay: NCI 60 cytotoxicity screening; type: cell-based; settings: Homo sapiens; RPMI-8226, Leukemia
CCRF-CEM = assay: NCI 60 cytotoxicity screening; type: cell-based; settings: Homo sapiens, Leukemia
Catenin α2 = biological target: T1, Catenin α2 (Homo sapiens, UniProt P26232); assay: Surface plasmon resonance (Biacore); type: binding; settings: Catenin α2, SPR
T1 sequence (P26232 1-953): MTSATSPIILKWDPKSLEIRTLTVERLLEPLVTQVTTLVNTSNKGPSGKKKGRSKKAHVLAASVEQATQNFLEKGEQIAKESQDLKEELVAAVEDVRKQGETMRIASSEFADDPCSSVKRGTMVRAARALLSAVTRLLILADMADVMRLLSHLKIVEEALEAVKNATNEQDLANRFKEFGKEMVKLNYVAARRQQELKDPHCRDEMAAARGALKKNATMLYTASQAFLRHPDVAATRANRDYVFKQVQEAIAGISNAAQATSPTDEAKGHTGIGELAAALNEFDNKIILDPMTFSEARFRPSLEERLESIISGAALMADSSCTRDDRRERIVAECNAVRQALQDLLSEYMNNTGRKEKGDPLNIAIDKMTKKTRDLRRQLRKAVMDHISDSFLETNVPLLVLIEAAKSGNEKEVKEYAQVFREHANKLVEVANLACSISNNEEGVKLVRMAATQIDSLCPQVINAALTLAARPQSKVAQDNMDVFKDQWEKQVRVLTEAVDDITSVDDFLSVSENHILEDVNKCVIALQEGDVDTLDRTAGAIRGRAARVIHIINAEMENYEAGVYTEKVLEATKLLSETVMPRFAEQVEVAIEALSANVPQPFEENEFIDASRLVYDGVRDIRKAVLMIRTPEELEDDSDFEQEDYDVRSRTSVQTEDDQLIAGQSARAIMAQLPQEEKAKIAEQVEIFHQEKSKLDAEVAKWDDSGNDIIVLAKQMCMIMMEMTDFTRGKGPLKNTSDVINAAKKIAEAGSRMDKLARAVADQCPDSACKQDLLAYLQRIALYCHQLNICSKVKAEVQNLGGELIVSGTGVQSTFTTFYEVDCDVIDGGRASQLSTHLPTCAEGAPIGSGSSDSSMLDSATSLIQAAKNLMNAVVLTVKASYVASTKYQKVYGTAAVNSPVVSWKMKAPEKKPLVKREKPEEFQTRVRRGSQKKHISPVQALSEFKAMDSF

SNB-75 = assay: NCI 60 cytotoxicity screening; type: cell-based; settings: Homo sapiens; SNB-75, CNS
HCT-116 = assay: NCI 60 cytotoxicity screening; type: cell-based; settings: Homo sapiens
NCI/ADR-RES = assay: NCI 60 cytotoxicity screening; type: cell-based; settings: Homo sapiens, Ovarian
HIF-1α = assay: Western blot of HIF-1α protein (hypoxia); type: cell-based, human; settings: hypoxia 72 h
Method: Changes in the expression HIF-1α protein in SK-MEL28, SK-OV3, MDA-MB-231 and COLO205 cells in response to treatment with CVM-1125 was performed as follows: 5.0 × 10^6 cells were grown under hypoxic conditions (as previously described) for 72 h, with or without 100 nM CVM-1125 in T175 culture flasks, then sub-confluent cultures harvested and whole cell protein lysates prepared and analyzed by Western blot (as above). Thirty micrograms of protein was loaded per lane of the gel for each sample followed by detection of HIF-1α protein on the final blot using a polyclonal rabbit anti- HIF-1α antibody (#3716; Cell Signaling Technologies), secondary antibody plus HRP (NA934V), then ECL. The blots were then stripped and re-probed for β-actin protein as a control (as above).

UACC-257 = assay: NCI 60 cytotoxicity screening; type: cell-based; settings: Homo sapiens; UACC-257, Melanoma
A549/ATCC = assay: NCI 60 cytotoxicity screening; type: cell-based; settings: Homo sapiens, NSCLC
MDA-MB-435 = assay: NCI 60 cytotoxicity screening; type: cell-based; settings: Homo sapiens; MDA-MB-435, Melanoma
DU-145 = assay: NCI 60 cytotoxicity screening; type: cell-based; settings: Homo sapiens; DU-145, Prostate
Nucleolin = Nucleolin (Homo sapiens, UniProt P19338); assay: Surface plasmon resonance (Biacore); type: binding; settings: SPR
Notch4 ICD = assay: qPCR analysis of Notch4 expression; type: cell-based, human; settings: C8161, 10 nM, 8–72 h
Method: For the qPCR analysis of Nodal and Notch expression, total RNA was isolated from cells using the PerfectPure RNA Cell Isolation kit (5Prime) and then reverse-transcribed using 1 μg RNA, RT master mix cocktail and MMLV reverse transcriptase. qPCR was performed on a 7500 Real-Time PCR System (Life Technologies) using manufacturer recommended protocol. TaqMan gene expression human primer/probe sets (Applied Biosystems) utilized were Nodal (Hs00250630_s1) and Notch4 (Hs00270200_m1). Target gene expression was normalized to appropriate house-keeping genes (e.g., RPLP0 or GAPDH). Data was analyzed using Life Technologies Sequence Detection Software.

[1] = Cell viability at VM-inhibiting concentration; type: cell-based; settings: human, human melanoma cells; 10 nM; read-out: percentage of viable cells

Nucleolin, sequence (P19338 whole entry): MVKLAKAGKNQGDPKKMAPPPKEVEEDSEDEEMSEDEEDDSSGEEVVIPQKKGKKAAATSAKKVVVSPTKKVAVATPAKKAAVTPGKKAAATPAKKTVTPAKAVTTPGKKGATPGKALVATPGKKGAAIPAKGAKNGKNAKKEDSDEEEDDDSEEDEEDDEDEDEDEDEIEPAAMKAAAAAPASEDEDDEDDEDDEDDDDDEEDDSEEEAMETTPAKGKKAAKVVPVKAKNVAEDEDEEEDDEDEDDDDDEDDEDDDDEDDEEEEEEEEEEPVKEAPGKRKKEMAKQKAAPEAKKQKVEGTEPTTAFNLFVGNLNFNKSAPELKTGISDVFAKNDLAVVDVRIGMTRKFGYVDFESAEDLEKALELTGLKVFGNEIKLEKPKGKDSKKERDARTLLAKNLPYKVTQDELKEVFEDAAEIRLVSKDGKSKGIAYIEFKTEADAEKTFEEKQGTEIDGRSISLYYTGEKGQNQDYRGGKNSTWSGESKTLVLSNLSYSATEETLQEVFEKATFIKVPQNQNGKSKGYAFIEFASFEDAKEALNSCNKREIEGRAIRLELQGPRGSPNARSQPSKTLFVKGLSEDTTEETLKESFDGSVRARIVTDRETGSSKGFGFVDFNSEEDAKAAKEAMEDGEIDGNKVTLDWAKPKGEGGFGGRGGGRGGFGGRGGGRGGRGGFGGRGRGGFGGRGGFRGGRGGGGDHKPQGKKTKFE

COc1ccc2[nH]c(-c3cccc(F)c3)cc(=O)c2c1O [CVM-1125]
GI50 (RPMI-8226): 0.0331 µM | GI50 (CCRF-CEM): 0.0348 µM | Association (ka) (Catenin α2): No dose dependent interaction | Dissociation (kd) (Catenin α2): No dose dependent interaction | KD (kd/ka) (Catenin α2): No dose dependent interaction | GI50 (SNB-75): 0.015 µM | GI50 (HCT-116; HCT-116, Colon): 0.033 µM | IC50 (HCT-116; HCT-116, refers to Supplementary Table S2): 0.033 µM | GI50 (NCI/ADR-RES): 0.0208 µM | reduction of HIF-1α protein levels (HIF-1α; COLO205, 100 nM): 9% | reduction of HIF-1α protein levels (HIF-1α; MDA-MB-231, 100 nM): 17% | reduction of HIF-1α protein levels (HIF-1α; SK-MEL28, 100 nM): 28% | reduction of HIF-1α protein levels (HIF-1α; SKOV3, 100 nM): 25% | GI50 (UACC-257): 0.0337 µM | GI50 (A549/ATCC): 0.0414 µM | GI50 (MDA-MB-435): < 0.01 µM | GI50 (DU-145): 0.0211 µM | Dissociation (kd) (Nucleolin): 0.0122 s⁻¹ | kon (Nucleolin; read-out: Association (ka)): 13500 M⁻¹ s⁻¹ | Kd (Nucleolin; read-out: KD (kd/ka)): 0.906 µM

COc1ccc2[nH]c(-c3cccc(F)c3)cc(=O)c2c1OP(=O)(O)O [CVM-1118]
expression of Notch4 ICD (mRNA) (Notch4 ICD): decreased | viability at 0.01 µM [1]: > 90%
